Measurements reported in patent US8440800B2, “Compositions for reducing cell adhesion to bubbles” (The Ohio State University Research Foundation, priority 2006, dated 2013).
Read-outs that look alike come from different tables or passages of the source.

Experiments:
[1] = tested on: Chinese Hamster Ovary cells (CHO) cell line K1; test: Fluorescent cytotoxicity screening, 96-well plates, calcein AM; assay type: cell-based
Description: (§1) Chinese Hamster Ovary cells (CHO) cell line K1 (ATCC CCL-61) were used. The cells were initially cultured in Ham F-12 culture medium supplemented with 10% v/v fetal bovine serum (Sigma Aldrich Co., St. Louis, Mo.) in T-75 flasks. Then the cells were gradually adapted to chemically-defined medium (CD CHO-A, Invitrogen, Carlsbad, Calif.), which contain no PF-68. The cells were subcultured every 3-4 days and maintained at 37° C. incubator with 5% CO2. All the cultures were anchorage-dependent.
The materials were compared at the same concentration relative to the specific surfactants critical micelle concentration, CMC, i.e., 0.01 CMC or 0.1 CMC. In order to minimize the effect of potential adsorption during filter sterilization, the concentrated material solutions were applied, and then diluted to desired concentration at time of use.
Black, clear-bottom 96-well plates (Fisher Scientific, Hampton, N.H.) were used in the screening experiments. In each well, 150 μl cell suspensions with a total cell number of approximately 10^4 were inoculated along with the test materials and subsequently cultured in a 37° C. incubator with 5% CO2. After 48 hours, the supernatant was carefully removed while the attached CHO cells remained at the bottom of the well. 100 μl of 4 μM calcein AM solution (Invitrogen, Carlsbad, Calif.), a fluorescence probe, was added to each well and incubated for one hour at 37° C. in order to quickly assess cell growth (Yang et al., 2002). Calcein AM is an esterase substrate which can be converted into a polar, fluorescent product by an intracellular enzyme. The fluorescence density was read by a Cytofluor 4000 (Applied Biosystems, Foster City, Calif.). Six replications were performed for each condition (type of material and concentration) and the positions on the 96 well plates were randomized. A reasonable linear relationship between cell number (less than 5×10^5 per well) and fluorescence density was confirmed before screening experiments; however, a control was created with each specific experiment.

[2] = CMC and static surface tension, maximum bubble pressure method; assay type: physicochemical; settings: for CMC: 37° C., CD CHO-A medium; for CMC SURFACE TENSION: cell culture medium at 37° C.
Description: (§2) The CMC depends on temperature and solution components. Given the significant number of components in typical cell culture media, the CMC of the comparative materials and the protective compositions were determined at 37° C. and in CD CHO-A medium using a SensaDyne bubble tensiometer PC500L (Chem-Dyne Research Corporation, Mesa, Ariz.), which uses the maximum bubble pressure method. The time between initial bubble formation and attainment of maximum bubble pressure, “surface age”, can be varied by changing the gas flow rate. When the static surface tensions were measured, the surface age were adjusted to approximate 1 s, which was enough for small molecule surfactants to migrate to the bubble surface and potentially reach equilibrium. When the dynamic surface tensions were measured, the surface age was varied in the range of about 0.1 to about 3.0 seconds.

[3] = tested on: Chinese Hamster Ovary cells (CHO) cell line K1; test: Cytotoxicity studies in T25 flasks (cell growth); assay type: cell-based; settings: T-25 flasks, 48 hours; concentrations of FIG. 6
Description: as §1
Various candidate materials from the 96 well plate assays were further investigated using T25 flasks. The concentration of the candidate materials were tested at discrete concentration, which depended on the specific material, but at the highest concentration exceeded 0.1 CMC. In all cases, tested, a concentration at which cell growth began to be inhibited was detected.
Additional protective compositions, Nonyl maltopyranoside (NM) and CYMAL®-4 (CM4), were purchased from Anatace Inc. (Maumee, Ohio). The inoculation was 3.0×10^5 cells/ml. After 48 hours, the cells were harvested by Accutase® (Innovative Cell Technologies Inc., San Diego, Calif.) and counted by a hemocytometer. Besides cell growth, the morphology of cells was also monitored by an inverted microscope (Nikon Ecllipse TE2000-U, Melville, N.Y.).

[4] = Dynamic surface tension in cell culture medium; assay type: physicochemical; settings: 0.28 g/L
Description: as §2

CHO K1 cells = test: Bubble-cell interactions, cell enrichment factor in foam (bubble collector, LDH); assay type: cell-based, Chinese Hamster
Description: An improved bubble collector device described by Ma et al. (2004) was used to quantitatively study cell entrapment in the foam. Specifically, this device can isolate bubble rupture events from foam formation vessel as well as maintain a plug-flow of bubbles from the foam layer into the bubble collection tube.
The cell concentration was determined using the lactate dehydrogenase (LDH) assay (CytoTox 96, Promega, Madison, Wis.). 9% (w/v) Triton X-100 solution was added to the cell suspension to be evaluated at a ratio of 1 to 10, and subsequently incubated at 37° C. for 45 minutes in order to lyse all the cells. A standard curve between LDH absorption and cell concentration by hemocytometer measurement was made for each set of experiments. The foam liquid volume was also measured by weighing the collect tube before and after experiments, assuming a liquid density of 1.0 g/ml.
For the bubble column studies, CHO K1 cells, grown in CD-CHO medium, were harvested during exponential phase of growth in spinner flasks. […]
Two spargers, a 22 gauge needle and a sintered glass (ACE glass, Vineland, N.J.) provided bubbles which produced, as expected, two different bubble sizes. The bubbles sizes were determined using a SCIMAX CCD digital camera (MVIA, Monaca, Pa.) and an infinity lens (ISCO Precision Optics GMBH, Germany) in a glass square column. […]

red blood cells = settings: cited from earlier work
[5] = Bubble size for two spargers (CCD camera); assay type: physicochemical
Description: Two spargers, a 22 gauge needle and a sintered glass (ACE glass, Vineland, N.J.) provided bubbles which produced, as expected, two different bubble sizes. The bubbles sizes were determined using a SCIMAX CCD digital camera (MVIA, Monaca, Pa.) and an infinity lens (ISCO Precision Optics GMBH, Germany) in a glass square column. The cell enrichment factor can be defined as the ratio of total LDH concentration in the foam liquid to that in the bulk liquid after lysing all the cells.
Consistent with the techniques used by Ma et al. (2004), the effectiveness of the protective compositions with respect to cell-bubble interactions was evaluated using the bubble collection device. Prior to the studies with cells, the size of the bubbles generated using a sintered glass sparger and a 22 gauge needle and two different concentrations of the PF-68® comparative material and the protective composition NM were determined.

SMILES | CMC [2] [mM] | HEAD GROUP SIZE [2] [Å^2] | CMC SURFACE TENSION [2] [DYN/CM] | also measured
CCCCCCCCCCCCCCCC[N+](C)(C)C.[Br-] [CTAB, Hexadecyltrimethyl ammonium bromide] | 1.3 | – | – | Cytotoxicity (inhibition of cell growth, fluorescence intensity) [1]: most toxic to cells; Microscopic observation of cells [1]: completely lysed the cells
CCCCCCCCS[C@@H]1O[C@H](CO)[C@@H](O)[C@H](O)[C@H]1O [OT, n-Octyl-β-D-thioglucopyranoside] | 11.0 | – | – | –
CCCCCCCCOS(=O)(=O)[O-].[Na+] [SOS, Sodium octyl sulfate] | 85.6 | – | – | –
OC[C@H]1O[C@H](O[C@H]2[C@H](O)[C@@H](O)[C@H](OCCCCC3CCCCC3)O[C@@H]2CO)[C@H](O)[C@@H](O)[C@@H]1O [CM4, 4-Cyclohexyl-1-butyl-β-D-maltoside] | 7.6 | – | – | –
CCCCCCCCCCCC[N+](C)(C)[O-] [DDAO, N,N-Dimethyldodecyl amine N-oxide] | 2.0 | – | – | –
CCCCCCCCCCCC[N+](C)(C)C.[Br-] [DTAB, Dodecyltrimethyl ammonium bromide] | 7.0 | – | – | Cytotoxicity (inhibition of cell growth, fluorescence intensity) ([1]; 0.01 CMC and 0.1 CMC, 48 hours): most toxic to cells; Microscopic observation of cells ([1]; at the lowest concentration): completely lysed the cells
CCCCCCCCCCO[C@@H]1O[C@H](CO)[C@@H](O[C@H]2O[C@H](CO)[C@@H](O)[C@H](O)[C@H]2O)[C@H](O)[C@H]1O [DM, n-Decyl-β-D-maltopyranoside] | 1.8 | 42 | 38.9 | Maximum concentration before inhibitory effects on cell growth was observed [3]: 0.28 g/L; Time to achieve equilibrium surface tension [4]: approximately 0.5 second; Effect on decrease of the enrichment factor (CHO K1 cells; 0.28 g/L): less than PF-68® comparative material and the protective composition NM
CCCCCCCCO[C@@H]1O[C@H](CO)[C@@H](O[C@H]2O[C@H](CO)[C@@H](O)[C@H](O)[C@H]2O)[C@H](O)[C@H]1O [OM, n-Octyl-β-D-maltopyranoside] | 24.5 | 61 | 41.5 | Maximum concentration before inhibitory effects on cell growth was observed [3]: 3.5 g/L; Toxicity to red blood cells (red blood cells): less toxic to red blood cells than the OG comparative material
CCCCCCCCCO[C@@H]1O[C@H](CO)[C@@H](O[C@H]2O[C@H](CO)[C@@H](O)[C@H](O)[C@H]2O)[C@H](O)[C@H]1O [NM, n-Nonyl-β-D-maltopyranoside] | 6 | 59 | 40.1 | Maximum concentration before inhibitory effects on cell growth was observed [3]: 1.0 g/L; Median Diameter of bubbles ([5]; 22 gauge needle (large bubble), 0.6 g/L): 2.7 mm; Median Diameter of bubbles ([5]; 22 gauge needle (large bubble), 1.0 g/L): 2.5 mm; Median Diameter of bubbles ([5]; sintered glass sparger (microbubble), 0.6 g/L): 159 μm; Median Diameter of bubbles ([5]; sintered glass sparger (microbubble), 1.0 g/L): 157 μm; Effect on cell enrichment factor (CHO K1 cells; 1.0 g/L): slightly decreases the enrichments factor further
CCCCCCCCCCO[C@@H]1O[C@H](CO)[C@@H](O)[C@H](O)[C@H]1O [DG, n-Decyl-β-D-glucopyranoside] | 2.3 | 32 | 31.5 | Toxicity relative to maltose head group analogue of same alkyl chain length [1]: more toxic
CCCCCCCCO[C@@H]1O[C@H](CO)[C@@H](O)[C@H](O)[C@H]1O [OG, n-Octyl-β-D-glucopyranoside] | 27.1 | 40 | 32.5 | Toxicity relative to maltose head group analogue of same alkyl chain length [1]: more toxic
CCCCCCCCCC[N+](C)(C)[O-] [DDeAO, N,N-Dimethyldecyl amine N-oxide] | 6.4 | – | – | –
CCCCCCCCCCOS(=O)(=O)[O-].[Na+] [SDeS, Sodium decyl sulfate] | 12.2 | – | – | –
CCCCCCCCCCCCOS(=O)(=O)[O-].[Na+] [SDS, Sodium dodecyl sulfate] | 2.3 | – | – | Cytotoxicity (inhibition of cell growth, fluorescence intensity) ([1]; 0.01 CMC and 0.1 CMC, 48 hours): inhibitory
